Three compounds from patent publication US11685714B2, “Prodrugs of cytotoxic active agents having enzymatically cleavable groups” (BAYER PHARMA AKTIENGESELLSCHAFT, priority 2016, dated 2023) can be followed below.

The subject of series [1] is NCI-H292: human mucoepidermoid lung carcinoma cells. The series can be described thus: MTT assay on NCI-H292. In kind it is cell-based. The following applies: NCI-H292, 96 h, growth inhibition, 96 h incubation. As to the method: (§1) The analysis of the cytotoxic effects of the ADCs was carried out with various cell lines:
(§2) The cells were cultivated by the standard method as stated by the American Tissue Culture Collection (ATCC) or the Leibniz-lnstitut DSMZ-Deutsche Sammlung von Mikroorganismen und Zellkulturen GmbH (DSMZ) for the cell lines in question.
(§3) The cells were then incubated in an incubator at 37° C. and 5% carbon dioxide. […] To this end, the MTT reagent was incubated with the cells for 4 h, followed by lysis of the cells overnight by addition of the detergent. […] The measured data were used to calculate the ICo50 of the growth inhibition using the DRC (dose response curve). The proliferation of cells which were not treated with test substance but were otherwise identically treated was defined as the 100% figure.
On the technique in general: Formazan colour is commonly taken as a measure of viable cells.

Series [2] concerns SK-HEP-1: human liver cell cancer line. The series can be described thus: MTT assay on SK-HEP-1. In kind it is cell-based. The following applies: SK-HEP1, 96 h, growth inhibition, 96 h incubation. As to the method:
as §1, §2, §3

Series [3] deals with T1, motor domain of the human kinesin spindle protein KSP/Eg5 (Homo sapiens, UniProt P52732).
T1 construct: The motor domain of the human kinesin spindle protein KSP/Eg5; purchased tebu-bio/Cytoskeleton Inc 027EG01-XL
T1 sequence (P52732 18-359 limits assumed): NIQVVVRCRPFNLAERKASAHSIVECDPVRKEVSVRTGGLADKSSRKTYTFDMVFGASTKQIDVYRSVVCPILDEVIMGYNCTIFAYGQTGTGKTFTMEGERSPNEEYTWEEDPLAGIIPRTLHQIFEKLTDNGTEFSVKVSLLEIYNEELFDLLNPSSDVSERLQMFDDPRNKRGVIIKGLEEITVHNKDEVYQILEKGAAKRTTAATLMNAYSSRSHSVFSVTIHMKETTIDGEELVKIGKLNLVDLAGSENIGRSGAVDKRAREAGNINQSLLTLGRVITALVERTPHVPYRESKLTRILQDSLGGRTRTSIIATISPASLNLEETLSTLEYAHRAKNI
Description: Inhibition of the kinesin spindle protein KSP/Eg5 (ATPase activity, malachite green). The class given is biochemical. The following applies: 10 nM KSP/Eg5, microtubuli, 500 μM ATP, 2 h at RT. As to the method: The motor domain of the human kinesin spindle protein KSP/Eg5 (tebu-bio/Cytoskeleton Inc, No. 027EG01-XL) was incubated in a concentration of 10 nM with microtubuli (bovine or porcine, tebu-bio/Cytoskeleton Inc) stabilized with 50 μg/ml taxol (Sigma No. T7191-5MG) for 5 min at RT in 15 mM PIPES, pH 6.8 (5 mM MgCl2 and 10 mM DTT, Sigma). […] Incubation was at RT for 2 h. ATPase activity was detected by detecting the inorganic phosphate formed using malachite green (Biomol). […] The positive controls used were monastrol (Sigma, M8515-1 mg) and ispinesib (AdooQ Bioscience A10486). The individual data of the dose-activity curve are eight-fold determinations. The IC50 values are means of two independent experiments.

A short description of series [4]: Assay for determination of stability in rat plasma. In kind it is in vitro ADME. The following applies: 1 μg/ml, 37° C., 24 h. As to the method:
To examine the stability of compounds A and B, 1 ml of rat plasma in a 1.5 ml Eppendorf tube in each case was equilibrated to 37° C. on an Eppendorf shaker. A stock solution (9 acetonitrile/1 DMSO) having a concentration of 100 μg/ml for compound A and compound B was prepared. 10 μl in each case of the stock solution were pipetted into 1 ml of equilibrated rat plasma, so as to give a concentration of 1 μg/ml.
The samples were kept at 450 rpm and 37° C. for 24 h. At each of the sampling times of 0, 0.25 h, 0.5 h, 1 h, 2 h, 4 h, 6 h and 24 h, 50 μl were taken and pipetted into 150 μl of methanol. Internal standard was included in the initial charge of methanol at a concentration of 0.05 μg/ml. After brief vortexing, 300 μl of 10 mM ammonium acetate buffer (pH 6.8) were added and centrifuged at 1881 g for 10 min. The samples were then analysed by means of RP-HPLC analysis and by LC-MS analysis.

Series [5] concerns KPL4: human breast cancer cell line. Description: MTT assay on KPL4. The class given is cell-based. The following applies: KPL4, 96 h, growth inhibition, 96 h incubation. As to the method:
as §1, §2, §3

Broadly, the IC50 is the concentration needed to halve the response being measured. Higher therefore signals a need for much substance. For the compound `CC(C)(C)[C@H](c1cc(-c2cc(F)ccc2F)cn1Cc1ccccc1)N(CC[C@H](N)C(=O)NCCNC(=O)CCCC(=O)NCCCC[C@H](N)C(=O)O)C(=O)CO` [Example M29, N^6-(5-{[2-({(2S)-2-Amino-4-[{(1R)-1-[1-benzyl-4-(2,5-difluorophenyl)-1H-pyrrol-2-yl]-2,2-dimethylpropyl} (glycoloyl)amino]butanoyl}amino)ethyl]amino}-5-oxopentanoyl)-L-lysine/trifluoroacetic acid (1:1)], the values for the half-inhibitory concentration (IC50) in series [1], in series [2] and in series [3] were 187 nM, 207 nM and 2.03 nM, respectively.
As to `CNC(=O)[C@H](CCN(C(=O)CO)[C@@H](c1cc(-c2cc(F)ccc2F)cn1Cc1ccccc1)C(C)(C)C)NC(=O)[C@H](CC(N)=O)NC(=O)[C@H](C)NC(=O)[C@H](C)NC(=O)Cc1ccncc1` [Example R3r-LLL, N-(Pyridin-4-ylacetyl)-L-alanyl-L-alanyl-N^1-[(2S)-4-[{(1R)-1-[1-benzyl-4-(2,5-difluorophenyl)-1H-pyrrol-2-yl]-2,2-dimethylpropyl}(glycoloyl)amino]-1-(methylamino)-1-oxobutan-2-yl]-L-aspartamide, reference compound], the half-maximal inhibitory concentration (IC50) in series [1] amounted to 204 nM; in series [2], 232 nM; in series [3], 162 nM. For the same compound, the “stability in rat plasma” value in series [4] is on record as “stable over 24 h”.
With `CC(C)(C)[C@H](c1cc(-c2cc(F)ccc2F)cn1Cc1ccccc1)N(CC[C@H](N)C(=O)NCCNC(=O)CNC(=O)CCCC(=O)NCCCC[C@H](N)C(=O)O)C(=O)CO` [Example M28, N^6—{(3R,7S)-7-Amino-3-[1-benzyl-4-(2,5-difluorophenyl)-1H-pyrrol-2-yl]-4-glycoloyl-2,2-dimethyl-8,13,16,20-tetraoxo-4,9,12,15-tetraazaicosan-20-yl}-L-lysine/trifluoroacetic acid (1:1)], the IC50 in series [1] amounted to 155 nM; in series [2], 187 nM; in series [5], 210 nM; in series [3], 1.41 nM.
